Test results taken from US20260274892A1, “MACROCYCLIC BROAD SPECTRUM ANTIBIOTICS” (RQx Pharmaceuticals, Inc., priority 2017, published 2026).

Legend:
[1] = tested on: Methicillin Resistant Staphylococcus aureus strain USA 200; experiment: Minimum inhibitory concentration (MIC), CLSI broth micro-dilution, S. aureus; format: cell-based; settings: Staphylococcus aureus, MRSA / USA200; Table 6; MRSA USA 200; cation adjusted Mueller Hinton Broth + 0.002% Tween-80; 35° C., 22 hours
Outline: (§1)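 Antibacterial potency is measured as MIC by the CLSI broth dilution method. Bacteria at OD600 0.0005 in Tween-80-supplemented cation-adjusted Mueller Hinton broth face ten twofold compound dilutions for 22 h at 35° C.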

[2] = tested on: Escherichia coli ATCC 25922; experiment: Minimum inhibitory concentration (MIC), CLSI broth micro-dilution, E. coli; format: cell-based; settings: Escherichia coli, ATCC25922, 22 h, Table 6, cation adjusted Mueller Hinton Broth + 0.002% Tween-80, 35° C.
Outline: as §1

Compound | MIC [1] | MIC [2]
Cc1nc(C#Cc2ccccc2)nc(C)c1C(=O)N[C@@H](CCN)C(=O)N(C)[C@@H]1C(=O)N[C@@H](C)C(=O)N[C@H](C(=O)NCC#N)Cc2ccc(OCCN)c(c2)-c2cc1ccc2OCCN (racemic) [Compound 309, rac-(8S,11S,14S)-3,18-bis(2-aminoethoxy)-N-(cyanomethyl)-11-methyl-14-[methyl-[rac-(2S)-4-amino-2-[[4,6-dimethyl-2-(2-phenylethynyl)pyrimidine-5-carbonyl]amino]butanoyl]amino]-10,13-dioxo-9,12-diazatricyclo[13.3.1.12,6]icosa-1(18),2(20),3,5,15(19),16-hexaene-8-carboxamide] | 0.27 µM | 1.1 µM
Cc1nc(C#Cc2ccc(C(C)(C)C)cc2)nc(C)c1C(=O)N[C@@H](CCN)C(=O)N(C)[C@@H]1C(=O)N[C@@H](C)C(=O)N[C@H](C(=O)NCC#N)Cc2ccc(OCCN)c(c2)-c2cc1ccc2OCCN (racemic) [Compound 311, rac-(8S,11S,14S)-3,18-bis(2-aminoethoxy)-N-(cyanomethyl)-11-methyl-14-[methyl-[rac-(2S)-4-amino-2-[[2-[2-(4-tert-butylphenyl)ethynyl]-4,6-dimethyl-pyrimidine-5-carbonyl]amino]butanoyl]amino]-10,13-dioxo-9,12-diazatricyclo[13.3.1.12,6]icosa-1(18),2(20),3,5,15(19),16-hexaene-8-carboxamide] | 1 µM | 8.2 µM
CC(C)=Cc1ccc(C#Cc2nc(C)c(C(=O)N[C@@H](CCN)C(=O)N(C)[C@@H]3C(=O)N[C@@H](C)C(=O)N[C@H](C(=O)NCC#N)Cc4ccc(OCCN)c(c4)-c4cc3ccc4OCCN)c(C)n2)cc1 (racemic) [Compound 313, rac-(8S,11S,14S)-3,18-bis(2-aminoethoxy)-N-(cyanomethyl)-11-methyl-14-[methyl-[rac-(2S)-4-amino-2-[[4,6-dimethyl-2-[2-[4-(2-methylprop-1-enyl)phenyl]ethynyl]pyrimidine-5-carbonyl]amino]butanoyl]amino]-10,13-dioxo-9,12-diazatricyclo[13.3.1.12,6]icosa-1(18),2(20),3,5,15(19),16-hexaene-8-carboxamide] | 0.016 µM | 0.13 µM
Cc1nc(N2CCC(C(C)(C)C)CC2)nc(C)c1C(=O)N[C@@H](CCN)C(=O)N(C)[C@@H]1C(=O)N[C@@H](C)C(=O)N[C@H](C(=O)NCC#N)Cc2ccc(OCCN)c(c2)-c2cc1ccc2OCCN (racemic) [Compound 315, rac-(8S,11S,14S)-3,18-bis(2-aminoethoxy)-N-(cyanomethyl)-11-methyl-14-[methyl-[rac-(2S)-4-amino-2-[[2-(4-tert-butyl-1-piperidyl)-4,6-dimethyl-pyrimidine-5-carbonyl]amino]butanoyl]amino]-10,13-dioxo-9,12-diazatricyclo[13.3.1.12,6]icosa-1(18),2(20),3,5,15(19),16-hexaene-8-carboxamide] | 0.016 µM | 0.25 µM
Cc1nc(N2CC(C(C)(C)C)C2)nc(C)c1C(=O)N[C@@H](CCN)C(=O)N(C)[C@@H]1C(=O)N[C@@H](C)C(=O)N[C@H](C(=O)NCC#N)Cc2ccc(OCCN)c(c2)-c2cc1ccc2OCCN (racemic) [Compound 316, rac-(8S,11S,14S)-3,18-bis(2-aminoethoxy)-N-(cyanomethyl)-11-methyl-14-[methyl-[rac-(2S)-4-amino-2-[[2-(3-tert-butylazetidin-1-yl)-4,6-dimethyl-pyrimidine-5-carbonyl]amino]butanoyl]amino]-10,13-dioxo-9,12-diazatricyclo[13.3.1.12,6]icosa-1(18),2(20),3,5,15(19),16-hexaene-8-carboxamide] | 0.38 µM | 1.5 µM
CCCCCOC1CCN(c2nc(C)c(C(=O)N[C@@H](CCN)C(=O)N(C)[C@@H]3C(=O)N[C@@H](C)C(=O)N[C@H](C(=O)NCC#N)Cc4ccc(OCCN)c(c4)-c4cc3ccc4OCCN)c(C)n2)CC1 (racemic) [Compound 317, rac-(8S,11S,14S)-3,18-bis(2-aminoethoxy)-N-(cyanomethyl)-11-methyl-14-[methyl-[rac-(2S)-4-amino-2-[[4,6-dimethyl-2-(4-pentoxy-1-piperidyl)pyrimidine-5-carbonyl]amino]butanoyl]amino]-10,13-dioxo-9,12-diazatricyclo[13.3.1.12,6]icosa-1(18),2(20),3,5,15(19),16-hexaene-8-carboxamide] | 0.047 µM | 0.5 µM
Cc1nc(-n2ccc(C(C)(C)C)cc2=O)nc(C)c1C(=O)N[C@@H](CCN)C(=O)N(C)[C@@H]1C(=O)N[C@@H](C)C(=O)N[C@H](C(=O)NCC#N)Cc2ccc(OCCN)c(c2)-c2cc1ccc2OCCN (racemic) [Compound 319, rac-(8S,11S,14S)-3,18-bis(2-aminoethoxy)-N-(cyanomethyl)-11-methyl-14-[methyl-[rac-(2S)-4-amino-2-[[2-(4-tert-butyl-2-oxo-1-pyridyl)-4,6-dimethyl-pyrimidine-5-carbonyl]amino]butanoyl]amino]-10,13-dioxo-9,12-diazatricyclo[13.3.1.12,6]icosa-1(18),2(20),3,5,15(19),16-hexaene-8-carboxamide] | 1 µM | 8 µM
Cc1nc(-c2ccc(N3CCC(C(C)(C)C)CC3)cc2)nc(C)c1C(=O)N[C@@H](CCN)C(=O)N(C)[C@@H]1C(=O)N[C@@H](C)C(=O)N[C@H](C(=O)NCC#N)Cc2ccc(OCCN)c(c2)-c2cc1ccc2OCCN (racemic) [Compound 320, rac-(8S,11S,14S)-3,18-bis(2-aminoethoxy)-N-(cyanomethyl)-11-methyl-14-[methyl-[rac-(2S)-4-amino-2-[[2-[4-(4-tert-butyl-1-piperidyl)phenyl]-4,6-dimethyl-pyrimidine-5-carbonyl]amino]butanoyl]amino]-10,13-dioxo-9,12-diazatricyclo[13.3.1.12,6]icosa-1(18),2(20),3,5,15(19),16-hexaene-8-carboxamide] | 0.016 µM | 0.19 µM
Cc1nc(-c2ccc(N3CCCC3)cc2)nc(C)c1C(=O)N[C@@H](CCN)C(=O)N(C)[C@@H]1C(=O)N[C@@H](C)C(=O)N[C@H](C(=O)NCC#N)Cc2ccc(OCCN)c(c2)-c2cc1ccc2OCCN (racemic) [Compound 321, rac-(8S,11S,14S)-3,18-bis(2-aminoethoxy)-N-(cyanomethyl)-11-methyl-14-[methyl-[rac-(2S)-4-amino-2-[[4,6-dimethyl-2-(4-pyrrolidin-1-ylphenyl)pyrimidine-5-carbonyl]amino]butanoyl]amino]-10,13-dioxo-9,12-diazatricyclo[13.3.1.12,6]icosa-1(18),2(20),3,5,15(19),16-hexaene-8-carboxamide] | 0.047 µM | 0.38 µM
Cc1nc(-c2ccc(N3CCC(F)(F)CC3)cc2)nc(C)c1C(=O)N[C@@H](CCN)C(=O)N(C)[C@@H]1C(=O)N[C@@H](C)C(=O)N[C@H](C(=O)NCC#N)Cc2ccc(OCCN)c(c2)-c2cc1ccc2OCCN (racemic) [Compound 322, rac-(8S,11S,14S)-3,18-bis(2-aminoethoxy)-N-(cyanomethyl)-11-methyl-14-[methyl-[rac-(2S)-4-amino-2-[[2-[4-(4,4-difluoro-1-piperidyl)phenyl]-4,6-dimethyl-pyrimidine-5-carbonyl]amino]butanoyl]amino]-10,13-dioxo-9,12-diazatricyclo[13.3.1.12,6]icosa-1(18),2(20),3,5,15(19),16-hexaene-8-carboxamide] | 0.15 µM | 0.6 µM
Cc1nc(-c2ccc(N3CCC3)cc2)nc(C)c1C(=O)N[C@@H](CCN)C(=O)N(C)[C@@H]1C(=O)N[C@@H](C)C(=O)N[C@H](C(=O)NCC#N)Cc2ccc(OCCN)c(c2)-c2cc1ccc2OCCN (racemic) [Compound 323, rac-(8S,11S,14S)-3,18-bis(2-aminoethoxy)-N-(cyanomethyl)-11-methyl-14-[methyl-[rac-(2S)-4-amino-2-[[2-[4-(azetidin-1-yl)phenyl]-4,6-dimethyl-pyrimidine-5-carbonyl]amino]butanoyl]amino]-10,13-dioxo-9,12-diazatricyclo[13.3.1.12,6]icosa-1(18),2(20),3,5,15(19),16-hexaene-8-carboxamide] | 0.38 µM | 1 µM
Cc1nc(-c2ccc(N3CCCCC3)cc2)nc(C)c1C(=O)N[C@@H](CCN)C(=O)N(C)[C@@H]1C(=O)N[C@@H](C)C(=O)N[C@H](C(=O)NCC#N)Cc2ccc(OCCN)c(c2)-c2cc1ccc2OCCN (racemic) [Compound 324, rac-(8S,11S,14S)-3,18-bis(2-aminoethoxy)-N-(cyanomethyl)-11-methyl-14-[methyl-[rac-(2S)-4-amino-2-[[4,6-dimethyl-2-[4-(1-piperidyl)phenyl]pyrimidine-5-carbonyl]amino]butanoyl]amino]-10,13-dioxo-9,12-diazatricyclo[13.3.1.12,6]icosa-1(18),2(20),3,5,15(19),16-hexaene-8-carboxamide] | 0.047 µM | 0.13 µM
Cc1nc(-c2ccc(N3CCCCCC3)cc2)nc(C)c1C(=O)N[C@@H](CCN)C(=O)N(C)[C@@H]1C(=O)N[C@@H](C)C(=O)N[C@H](C(=O)NCC#N)Cc2ccc(OCCN)c(c2)-c2cc1ccc2OCCN (racemic) [Compound 325, rac-(8S,11S,14S)-3,18-bis(2-aminoethoxy)-N-(cyanomethyl)-11-methyl-14-[methyl-[rac-(2S)-4-amino-2-[[2-[4-(azepan-1-yl)phenyl]-4,6-dimethyl-pyrimidine-5-carbonyl]amino]butanoyl]amino]-10,13-dioxo-9,12-diazatricyclo[13.3.1.12,6]icosa-1(18),2(20),3,5,15(19),16-hexaene-8-carboxamide] | 0.016 µM | 0.13 µM
